# Values of other authors as cited in patent US9918950B2, “Targeted treatment of anerobic cancer” (University Hospitals Cleveland Medical Center, priority 2012, dated 2018).
# What was measured:
# [1] = test system: 4T1 mouse mammary carcinoma cells; conditions: 4T1 window chamber tumors
# [2] = test system: HCT116 human colon carcinoma cells; conditions: HCT116 window chamber tumors
smiles,measurement,setting,value
Nc1n[n+]([O-])c2ccccc2[n+]1[O-] [tirapazamine],time required for incipient angiogenesis versus saline treatment,"[1]; n=8, log-rank P=0.66",No significant difference
same,median time required for the initial hypoxic response,"[1]; versus 4 days saline, n=8, P<0.05",5.5 days
same,time required for onset of incipient angiogenesis versus saline treatment,"[2]; n=8, log-rank P=0.33",No significant difference
same,median time required for the initial hypoxic response,"[2]; versus 3.5 days saline, Kaplan-Meier, n=8, P<0.001",9.5 days
